Measured values reported in US10363239B2, “Method for inhibiting growth of cancer cells” (Pain Therapeutics, Inc., priority 2013, dated 2019).
Read-outs that look alike come from different tables or passages of the source.

How the values were obtained:
[1] = molecular target: FLNA pentapeptide of SEQ ID NO: 1 (Bn-VAKGL) (Homo sapiens, UniProt P21333); assay: FITC-NLX-based FLNA screening assay (inhibition of FITC-naloxone binding to Bn-VAKGL on streptavidin plates); conditions: 10 nM FITC-NLX
mu opiate receptor (MOR) = assay: MOR agonist activity using [35S]GTPγS binding assay in striatal membranes; format: biochemical; conditions: for MOR agonist activity ([35S]GTPγS binding), FLNA-Binding Compound as Agonist 1 μM + BFNA: 1 μM compound + 1 μM β-funaltrexamine
Procedure, shortened: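 Striatal membranes (200 μg) were preincubated 5 min at 30 °C in HEPES pH 7.5 with 100 mM NaCl, 1 mM MgCl2 and 0.5 nM [35S]GTPγS, then 5 min more with 0.1–10 μM compound. Gαo was immunoprecipitated and bound radioactivity counted by scintillation.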

[2] = read-out: Percent Binding Inhibition, FLNA-binding compound 0.01 μM
[3] = read-out: Percent Binding Inhibition, FLNA-binding compound 0.1 μM
[4] = read-out: Percent Binding Inhibition, FLNA-binding compound 1 μM
[5] = Series C-1, 0.1 μM compound, relative to DAMGO
[6] = Series C-1, 0.1 μM compound, [35S]GTPγS binding to Gαo, striatal membranes
[7] = Series C-1, 1 μM compound + 1 μM β-FNA
[8] = Series C-1, 1 μM compound + β-FNA, relative to DAMGO + BFNA
[9] = Series C-1, 1 μM compound, relative to DAMGO
[10] = Series C-1, 1 μM compound, [35S]GTPγS binding to Gαo, striatal membranes
[11] = Series C-2, 0.1 μM compound, relative to DAMGO
[12] = Series C-2, 0.1 μM compound, [35S]GTPγS binding to Gαo, striatal membranes
[13] = Series C-2, 1 μM compound + 1 μM β-FNA
[14] = Series C-2, 1 μM compound + β-FNA, relative to DAMGO + BFNA
[15] = Series C-2, 1 μM compound, relative to DAMGO
[16] = Series C-2, 1 μM compound, [35S]GTPγS binding to Gαo, striatal membranes
[17] = Series B, 0.1 μM compound, relative to DAMGO
[18] = Series B, 0.1 μM compound, [35S]GTPγS binding to Gαo, striatal membranes
[19] = Series B, 1 μM compound + 1 μM β-FNA
[20] = Series B, 1 μM compound + β-FNA, relative to DAMGO + BFNA
[21] = Series B, 1 μM compound, relative to DAMGO
[22] = Series B, 1 μM compound, [35S]GTPγS binding to Gαo, striatal membranes
[23] = FLNA-binding compound 0.01 μM, read-out: Percent Binding Inhibition
[24] = FLNA-binding compound 0.1 μM, read-out: Percent Binding Inhibition
[25] = FLNA-binding compound 1 μM, read-out: Percent Binding Inhibition
[26] = 0.1 μM compound relative to DAMGO
[27] = 1 μM compound + BFNA relative to DAMGO + BFNA
[28] = 1 μM compound relative to DAMGO

Compound | inhibition at 0.01 µM [1, 2] | inhibition at 0.1 µM [1, 3] | inhibition at 1 µM [1, 4] | % DAMGO (0.1 μM) (mu opiate receptor (MOR); [5]) | Concentration of FLNA-Binding Compound as Agonist 0.1 μM (mu opiate receptor (MOR); [6]) | Concentration of FLNA-Binding Compound as Agonist 1 μM + BFNA (mu opiate receptor (MOR); [7]) | % DAMGO + BFNA (mu opiate receptor (MOR); [8]) | % DAMGO (1 μM) (mu opiate receptor (MOR); [9]) | Concentration of FLNA-Binding Compound as Agonist 1 μM (mu opiate receptor (MOR); [10]) | % DAMGO (0.1 μM) (mu opiate receptor (MOR); [11]) | MOR agonist activity, percent [35S]GTPγS binding at the stated compound concentration (mu opiate receptor (MOR); [12]) | MOR agonist activity, percent [35S]GTPγS binding at the stated compound concentration (mu opiate receptor (MOR); [13]) | % DAMGO + BFNA (mu opiate receptor (MOR); [14]) | % DAMGO (1 μM) (mu opiate receptor (MOR); [15]) | MOR agonist activity, percent [35S]GTPγS binding at the stated compound concentration (mu opiate receptor (MOR); [16]) | other results
CC(=O)c1ccc(S(=O)(=O)N2CCC3(CC2)OCCN3S(=O)(=O)c2ccc(C(C)=O)cc2)cc1 [Compound C0011] | 37.6% | 41.4% | 46% | 126.8% | 217.0% | 19.0% | 36.5% | 114.3% | 305.0% | 126.8% | 217.0% | 19.0% | 36.5% | 114.3% | 305.0% | 
COc1ccc(OC)c(CCC(=O)CC2c3c(cc4c(c3OC)OCO4)CC[N+]2(C)C)c1 (stereo not drawn) [Compound B0044] | 35.2% | 39.5% | 44.4% |  |  |  |  |  |  |  |  |  |  |  |  | % DAMGO (0.1 μM) (mu opiate receptor (MOR); [17]): 49.4%; MOR agonist activity, percent [35S]GTPγS binding at the stated compound concentration (mu opiate receptor (MOR); [18]): 87.3%; MOR agonist activity, percent [35S]GTPγS binding at the stated compound concentration (mu opiate receptor (MOR); [19]): 134.6%; % DAMGO + BFNA (mu opiate receptor (MOR); [20]): 511.8%; % DAMGO (1 μM) (mu opiate receptor (MOR); [21]): 66.9%; MOR agonist activity, percent [35S]GTPγS binding at the stated compound concentration (mu opiate receptor (MOR); [22]): 170.0%
O=S(=O)(c1cccc2cccnc12)N1CCC2(CC1)OCCN2S(=O)(=O)c1cccc2cccnc12 [Compound C0143M] | 45.3% | 48.4% | 57.8% | 47.1% | 81.0% | 86.5% | 94.7% | 59.3% | 193.3% | 47.1% |  |  | 94.7% | 59.3% |  | Concentration of FLNA-Binding Compound as Agonist 0.1 μM (mu opiate receptor (MOR); [12]): 81.0%; Concentration of FLNA-Binding Compound as Agonist 1 μM + BFNA (mu opiate receptor (MOR); [13]): 86.5%; Concentration of FLNA-Binding Compound as Agonist 1 μM (mu opiate receptor (MOR); [16]): 193.3%
COc1c2c(cc3c1C(CC(O)CCc1ccccc1)N(C)CC3)OCO2 (stereo not drawn) [Compound B0051] |  |  |  |  |  |  |  |  |  |  |  |  |  |  |  | inhibition at 0.01 µM [1, 23]: 29.9%; inhibition at 0.1 µM [1, 24]: 35.7%; inhibition at 1 µM [1, 25]: 43.7%; % DAMGO (0.1 μM) (mu opiate receptor (MOR); [17]): 68.4%; MOR agonist activity, percent [35S]GTPγS binding at the stated compound concentration (mu opiate receptor (MOR); [18]): 115.6%; MOR agonist activity, percent [35S]GTPγS binding at the stated compound concentration (mu opiate receptor (MOR); [19]): 43.8%; % DAMGO + BFNA (mu opiate receptor (MOR); [20]): 263.9%; % DAMGO (1 μM) (mu opiate receptor (MOR); [21]): 76.7%; MOR agonist activity, percent [35S]GTPγS binding at the stated compound concentration (mu opiate receptor (MOR); [22]): 167.9%
CCCCN1CCC2(CC1)OCCN2S(=O)(=O)c1ccc(C(C)=O)cc1 [Compound C0101M] |  |  |  |  |  |  |  |  |  | 82.5% | 138.2% | 174.8% | 368.0% | 123.4% | 274.3% | inhibition at 0.01 µM [1, 23]: 50.5%; inhibition at 0.1 µM [1, 24]: 56.4%; inhibition at 1 µM [1, 25]: 59%
COc1ccc(S(=O)(=O)N2CCC3(OCCN3S(=O)(=O)c3ccc(OC)cc3)C3CCCCC32)cc1 (stereo not drawn) [Compound C0144M] |  |  |  | 108.3% | 186.3% | 125.9% | 137.9% | 90.8% | 295.9% |  |  |  |  |  |  | inhibition at 0.01 µM [1, 23]: 46.4%; inhibition at 0.1 µM [1, 24]: 50.7%; inhibition at 1 µM [1, 25]: 55.7%
CC1CCC(C(C)C)C(OCC(O)CN2CCC(=O)CC2)C1 (stereo not drawn) [Compound A0060] | 32.4% | 39% | 42% |  |  |  |  |  |  |  |  |  |  |  |  | MOR agonist activity ([35S]GTPγS binding), FLNA-Binding Compound as Agonist 0.1 μM (mu opiate receptor (MOR); 0.1 μM compound): 99.7%; % DAMGO (0.1 μM) (mu opiate receptor (MOR); [26]): 63.9%; MOR agonist activity ([35S]GTPγS binding), FLNA-Binding Compound as Agonist 1 μM (mu opiate receptor (MOR); 1 μM compound): 158.2%; MOR agonist activity ([35S]GTPγS binding), FLNA-Binding Compound as Agonist 1 μM + BFNA (mu opiate receptor (MOR)): 14.3%; % DAMGO + BFNA (mu opiate receptor (MOR); [27]): 35.8%; % DAMGO (1 μM) (mu opiate receptor (MOR); [28]): 68.6%
O=S(=O)(c1ccc2ccccc2c1)N1CCC2(CC1)OCCN2S(=O)(=O)c1ccc2ccccc2c1 [Compound C0140M] | 42.3% | 49.2% | 54.4% | 85.8% | 126.1% | 83.0% | 211.2% | 106.5% | 215.4% |  |  |  |  |  |  | 
CC(=O)c1ccc(S(=O)(=O)N2CC(CN(C)C)OC23CCN(CC2CC2)CC3)cc1 (stereo not drawn) [Compound C0128M] |  |  |  |  |  |  |  |  |  | 104.5% | 197.8% | 63.9% | 131.8% | 115.2% | 286.0% | inhibition at 0.01 µM [1, 23]: 46.5%; inhibition at 0.1 µM [1, 24]: 54.4%; inhibition at 1 µM [1, 25]: 58.2%
CC(=O)c1ccc(S(=O)(=O)N2CCOC23CCN(C)CC3)cc1 [Compound C0093M] | 44.8% | 49.9% | 53.5% |  |  |  |  |  |  | 81.3% | 140.0% | 44.0% | 127.5% | 96.4% | 211.8% | 
O=S(=O)(c1ccc(-c2ccccc2)cc1)N1CCC2(CC1)OCCN2S(=O)(=O)c1ccc(-c2ccccc2)cc1 [Compound C0010] | 39.8% | 42.7% | 47.1% | 80.7% | 136.5% | 89.1% | 135.0% | 114.9% | 307.0% |  |  |  |  |  |  | 
O=S(=O)(c1cccs1)N1CCC2(CC1)OCCN2S(=O)(=O)c1cccs1 [Compound C0141M] | 33.1% | 39% | 46.9% | 109.9% | 161.5% | 47.9% | 121.9% | 105.8% | 213.9% |  |  |  |  |  |  | 
COc1cccc(OC)c1CC(=O)CC1c2c(cc3c(c2OC)OCO3)CC[N+]1(C)C (stereo not drawn) [Compound B0036] | 46.6% | 52.8% | 62.1% |  |  |  |  |  |  |  |  |  |  |  |  | % DAMGO (0.1 μM) (mu opiate receptor (MOR); [17]): 39.2%; MOR agonist activity, percent [35S]GTPγS binding at the stated compound concentration (mu opiate receptor (MOR); [18]): 61.4%; MOR agonist activity, percent [35S]GTPγS binding at the stated compound concentration (mu opiate receptor (MOR); [19]): 65.1%; % DAMGO + BFNA (mu opiate receptor (MOR); [20]): 199.7%; % DAMGO (1 μM) (mu opiate receptor (MOR); [21]): 52.1%; MOR agonist activity, percent [35S]GTPγS binding at the stated compound concentration (mu opiate receptor (MOR); [22]): 120.6%
CC1CCC(C(C)C)C(OCC(O)CN(C(C)C)C(C)C)C1 (stereo not drawn) [Compound A0037] | 49.3% | 51.3% | 56.8% |  |  |  |  |  |  |  |  |  |  |  |  | MOR agonist activity ([35S]GTPγS binding), FLNA-Binding Compound as Agonist 0.1 μM (mu opiate receptor (MOR); 0.1 μM compound): 177.9%; % DAMGO (0.1 μM) (mu opiate receptor (MOR); [26]): 90.7%; MOR agonist activity ([35S]GTPγS binding), FLNA-Binding Compound as Agonist 1 μM (mu opiate receptor (MOR); 1 μM compound): 236.2%; MOR agonist activity ([35S]GTPγS binding), FLNA-Binding Compound as Agonist 1 μM + BFNA (mu opiate receptor (MOR)): 104.6%; % DAMGO + BFNA (mu opiate receptor (MOR); [27]): 141.5%; % DAMGO (1 μM) (mu opiate receptor (MOR); [28]): 85.6%
CCc1ccc(S(=O)(=O)N2CCOC23CCN(CC2CC2)CC3)cc1 [Compound C0135M] | 53.9% | 55.1% | 62.3% |  |  |  |  |  |  | 85.3% | 161.3% | 113.3% | 233.6% | 124.9% | 310.1% | 
CC1CCC(C(C)C)C(OCC(O)CN2CCc3ccccc32)C1 (stereo not drawn) [Compound A0065] |  |  |  |  |  |  |  |  |  |  |  |  |  |  |  | Percent Binding Inhibition ([1]; FLNA-binding compound 0.01 μM): 38.7%; Percent Binding Inhibition ([1]; FLNA-binding compound 0.1 μM): 50.0%; Percent Binding Inhibition ([1]; FLNA-binding compound 1 μM): 50.8%; MOR agonist activity ([35S]GTPγS binding), FLNA-Binding Compound as Agonist 0.1 μM (mu opiate receptor (MOR); 0.1 μM compound): 197.6%; % DAMGO (0.1 μM) (mu opiate receptor (MOR); [26]): 126.6%; MOR agonist activity ([35S]GTPγS binding), FLNA-Binding Compound as Agonist 1 μM (mu opiate receptor (MOR); 1 μM compound): 266.8%; MOR agonist activity ([35S]GTPγS binding), FLNA-Binding Compound as Agonist 1 μM + BFNA (mu opiate receptor (MOR)): 44.9%; % DAMGO + BFNA (mu opiate receptor (MOR); [27]): 112.5%; % DAMGO (1 μM) (mu opiate receptor (MOR); [28]): 115.7%
